# Paper PMC8062632, “Structural studies of phosphorylation-dependent interactions between the V2R receptor and arrestin-2” (Nature Communications, 2021)
# Molecular target: arrestin2
# Assay: Cou-facilitated FRET assay for dissociation constant determination
# Assay type: binding, bovine
# Conditions: for Kd: 1 μM arrestin2 L293Cou with 1 μM Fab30, rising phosphopeptide concentrations, 25 °C, excitation 280 nm, ratio F450/F330; for reduction of affinity for arrestin2 compared with V2Rpp-FP: from FRET Kd values
# Experimental: Steady state fluorescence was measured by a Varioskan flash (Thermo Scientific) instrument at 25 °C. […] Fluorescence intensity analysis of normalized ratio F450/F330 was calculated from relative fluorescence intensity at 450 and 330 nm. The dissociation constant was determined by fitting to the nonlinear regression equation y = Bmax [X] / (Kd + [X]) + NS[X] + Background as ours previously reported. […]
# different phospho-peptide binding. a). Schematic flowchart of FRET assay for dissociation constant determination of arrestin-phospho-peptide interaction.
# The synthetic fluorescent amino acid L-(7-hydroxycoumarin-4-yl) ethylglycine (Cou) was genetically incorporated into arrestin2 and served as a fluorescent acceptor for the emission light at 330 nm, and tryptophan served as the donor, which was excited at 280 nm. Cou produced its characteristic emission light at 450 nm. b). Analysis of the titration experiments monitored by FRET assay. The dissociation constant was determined by fitting to the nonlinear regression equation y = Bmax[X]/(Kd + [X]) + NS[X]+Background as previously described4. […]
Kd [µM],Compound,reduction of affinity for arrestin2 compared with V2Rpp-FP
3.3 ± 0.6,CC(C)C[C@H](NC(=O)[C@H](COP(=O)(O)O)NC(=O)[C@@H]1CCCN1C(=O)[C@@H]1CCCN1C(=O)[C@@H](NC(=O)[C@H](CCCNC(=N)N)NC(=O)CNC(=O)[C@H](CCCNC(=N)N)NC(=O)[C@H](C)N)[C@@H](C)O)C(=O)NCC(=O)N1CCC[C@H]1C(=O)N[C@@H](CCC(N)=O)C(=O)N[C@@H](CC(=O)O)C(=O)N[C@@H](CCC(=O)O)C(=O)N[C@@H](COP(=O)(O)O)C(=O)N[C@@H](CS)C(=O)N[C@H](C(=O)N[C@H](C(=O)N[C@@H](C)C(=O)N[C@@H](COP(=O)(O)O)C(=O)N[C@@H](COP(=O)(O)O)C(=O)N[C@@H](COP(=O)(O)O)C(=O)N[C@@H](CC(C)C)C(=O)N[C@@H](C)C(=O)N[C@@H](CCCCN)C(=O)N[C@@H](CC(=O)O)C(=O)N[C@H](C(=O)N[C@@H](CO)C(=O)N[C@@H](CO)C(=O)O)[C@@H](C)O)[C@@H](C)OP(=O)(O)O)[C@@H](C)OP(=O)(O)O [V2Rpp-1],approximately 3 fold
3 ± 0.4,CC(C)C[C@H](NC(=O)[C@H](COP(=O)(O)O)NC(=O)[C@@H]1CCCN1C(=O)[C@@H]1CCCN1C(=O)[C@@H](NC(=O)[C@H](CCCNC(=N)N)NC(=O)CNC(=O)[C@H](CCCNC(=N)N)NC(=O)[C@H](C)N)[C@@H](C)OP(=O)(O)O)C(=O)NCC(=O)N1CCC[C@H]1C(=O)N[C@@H](CCC(N)=O)C(=O)N[C@@H](CC(=O)O)C(=O)N[C@@H](CCC(=O)O)C(=O)N[C@@H](CO)C(=O)N[C@@H](CS)C(=O)N[C@H](C(=O)N[C@H](C(=O)N[C@@H](C)C(=O)N[C@@H](COP(=O)(O)O)C(=O)N[C@@H](COP(=O)(O)O)C(=O)N[C@@H](COP(=O)(O)O)C(=O)N[C@@H](CC(C)C)C(=O)N[C@@H](C)C(=O)N[C@@H](CCCCN)C(=O)N[C@@H](CC(=O)O)C(=O)N[C@H](C(=O)N[C@@H](CO)C(=O)N[C@@H](CO)C(=O)O)[C@@H](C)O)[C@@H](C)OP(=O)(O)O)[C@@H](C)OP(=O)(O)O [V2Rpp-3],approximately 3 fold
5.1 ± 0.7,CC(C)C[C@H](NC(=O)[C@H](COP(=O)(O)O)NC(=O)[C@@H]1CCCN1C(=O)[C@@H]1CCCN1C(=O)[C@@H](NC(=O)[C@H](CCCNC(=N)N)NC(=O)CNC(=O)[C@H](CCCNC(=N)N)NC(=O)[C@H](C)N)[C@@H](C)OP(=O)(O)O)C(=O)NCC(=O)N1CCC[C@H]1C(=O)N[C@@H](CCC(N)=O)C(=O)N[C@@H](CC(=O)O)C(=O)N[C@@H](CCC(=O)O)C(=O)N[C@@H](COP(=O)(O)O)C(=O)N[C@@H](CS)C(=O)N[C@H](C(=O)N[C@H](C(=O)N[C@@H](C)C(=O)N[C@@H](COP(=O)(O)O)C(=O)N[C@@H](COP(=O)(O)O)C(=O)N[C@@H](COP(=O)(O)O)C(=O)N[C@@H](CC(C)C)C(=O)N[C@@H](C)C(=O)N[C@@H](CCCCN)C(=O)N[C@@H](CC(=O)O)C(=O)N[C@H](C(=O)N[C@@H](CO)C(=O)N[C@@H](CO)C(=O)O)[C@@H](C)O)[C@@H](C)O)[C@@H](C)OP(=O)(O)O [V2Rpp-4],~5 fold
